Experimental data reported in patent US5491166A, “Inhibitors of HIV protease useful for the treatment of AIDS” (Eli Lilly and Company, priority 1992, dated 1996).

The compounds below were run against T1, HIV-1 protease (Human immunodeficiency virus type 1 group M subtype B, UniProt P04585) (assay: biochemical). Settings: All values normalized to a positive control; 1 h pre-incubation, 16 h with substrate at room temperature; *concentration of the compound was not increased above the reported concentration.
T1 construct: Purified HIV-1 protease was obtained as described above; made in house; host or cells: E. coli K12 L507/pHP10D
Protocol: A culture of E. coli K12 L507/pHP10D was grown to mid-log phase at 32° C. in LB media containing 12.5 μg/ml tetracycline. The cultivation temperature was quickly elevated to 40° C. to induce gene expression, and the cells were allowed to grow for 2.5 hours at this temperature before the culture was quickly chilled on ice. The cells were centrifuged and the cell pellet was resuspended in 20 mL 50 mmol MES buffer (pH 6.0) containing 1 mmol EDTA, 1 mmol DTT, 1 mmol PMSF and 10% glycerol ("Buffer A"). Cells were lysed by sonication using a Fischer Model 300 Dismembrator and a microtip probe. Following centrifugation at 27,000×g, the supernatant was diluted to a total volume of 60 mL with Buffer A and loaded onto a 2.0×19 cm QAE-Sepharose column (1 mL/min, 4° C.), that had been equilibrated in Buffer A. The column was washed isocratically for 180 min and then eluted with a gradient eluent of 0-1.0M sodium chloride in Buffer A over 120 min. Enzymatic activity was measured by HPLC using the synthetic peptide SQNYPIV as described in Margolin et al., Biochem, Biophys. Res. Commun., 167, 554-560 (1990); the production of the p1 peptide (SQNY) was measured.
The active fractions were combined, made 1.2M in ammonium sulfate, and applied to a 2.0×18 cm hexyl agarose column that had been equilibrated in Buffer A containing 1.2M ammonium sulfate. The sample was loaded at a flow rate of 1 mL/min at 4° C., washed with the equilibration buffer for 240 min (1 mL/min) and then eluted using a reverse linear gradient of 1.2-0M ammonium sulfate in Buffer A for 120 min at the same flow rate. The column was then washed isocratically in Buffer A for 120 min.
The active fractions were combined, concentrated to 10 mL using an Amicon stirred cell with a YM-10 membrane and then applied to a MonoS cation exchange column (1.0×10 cm) that had been equilibrated in Buffer A. The sample was loaded at a flow rate of 1 mL/min at 25° C. After washing isocratically for 30 min, the protease was eluted using a linear gradient of 0-0.45M sodium chloride in Buffer A over 40 min.. The column was washed isocratically in Buffer A containing 0.45M sodium chloride for 30 min.
The active fractions were combined and concentrated to 200 μL using an Amicon stirred cell and a YM-10 membrane and then the protease was applied to a Superose 6 size exclusion column equilibrated in Buffer A containing 0.1M sodium chloride.
The purified peptide was labeled with a fluorescent marker at the C-terminal end for use in the Pandex assay. N^α -Biotin-[…]OH (1.206 g, 0.936 mmol) was dissolved in 100 mL of 0.1M sodium borate, pH 9.5. Then, a solution of 3 g (7.7 mmol) of fluorescein isothiocyanate in 15 mL dimethyl sulfoxide was added to the reaction mixture in 10 equal portions over two hours. The resulting mixture was allowed to react for one hour after the final addition. The solution was adjusted to pH 3 using 5N HCl, resulting in the formation of a precipitate which was removed by centrifugation.
The following buffers and solutions are used in the Fluorescence HIV-1 Protease Inhibitor Assay:
0.05M 4-morpholineethane sulfonic acid, pH 5.5
0.1% solution of Fluoricon Avidin Assay Particles (Avidin conjugated to solid polystyrene beads, 0.6-0.8 microns in diameter in TBSA Buffer
27 IU/mL of purified HIV-1 protease in MES-ALB buffer (1 IU equals the amount of enzyme required to hydrolyze 1 μmole of substrate per minute at 37° C.
To each well of a round bottom, 96-well plate is added 20 μL of the Enzyme Solution followed by 10 μL of the compound to be evaluated in a 20% aqueous dimethylsulfoxide solution. Purified HIV-1 protease was obtained as described above.
With `CC(C)(C)NC(=O)c1ccccc1C[C@@H](O)[C@H](Cc1ccccc1)NC(=O)[C@@H](CC(=O)OCc1ccccc1)NC(=O)OCc1ccccc1` (relative stereo) [Example 9, [2R-(2R *, 3S*, 6R*)]-N-t-Butyl-2-[2-hydroxy-3-phenylmethyl-4-aza-5-oxo-6-N(benzyloxycarbonyl)amino-7-benzyloxycarbonyl]heptyl benzamide] the “Fluorescence Assay IC50” value was over 1 µg/mL. In the case of “[2R-(2R*, 3S*, 6S*)]-N-t-Butyl-2-[2-hydroxy-3-phenylmethyl-4,7-diaza-5,8-dioxo-6-cyanomethyl-9-N(methyl)aza-10-quinolin-2-yl]decyl benzamide [Example 4]”, the “Fluorescence Assay IC50” value is reported as 0.0012 µg/mL.

Same assay, conditions: read-out: Fluorescence Assay IC8
With `CC(C)(C)NC(=O)c1ccccc1C[C@@H](O)[C@H](Cc1ccccc1)NC(=O)[C@@H](CC(=O)OCc1ccccc1)NC(=O)OC(C)(C)C` [Example 11, [2R-(2R *, 3S*, 6S*)]-N-t-butyl-2-[2-hydroxy-3-phenylmethyl-4-aza-5-oxo-6-N(t-butoxycarbonyl)amino-7-benzyloxycarbonyl]heptyl benzamide] the IC8 was 1 µg/mL.

Same assay, conditions: read-out: Fluorescence Assay IC50 (converted)
`CONC(=O)C[C@H](NC(=O)c1ccc2ccccc2n1)C(=O)N[C@@H](Cc1ccccc1)[C@H](O)Cc1ccccc1C(=O)NC(C)(C)C` [Example 12, [2R-(2R*, 3S*, 6S*)]-N-t-Butyl-2-[2-hydroxy-3-phenylmethyl-4-aza-5-oxo-6-N(quinolin-2-ylcarbonyl)amino-8-N(methoxy)carbamoyl]heptyl benzamide] showed an IC50 of 0.782 nM. For `CC(C)(C)NC(=O)c1ccccc1C[C@@H](O)[C@H](Cc1ccccc1)NC(=O)[C@H](CC(=O)OCc1ccccc1)NC(=O)c1ccc2ccccc2n1` [Example 7, [2R-(2R*,3S*,6S*)]-N-t-Butyl-2-[2-hydroxy-3-phenylmethyl-4-aza-5-oxo-6-N(quinolin-2-ylcarbonyl)amino-7-benzyloxycarbony]heptyl benzamide], the IC50 was 0.856 nM. Compound `CN1Cc2ccccc2CC1C(=O)N[C@@H](CC#N)C(=O)N[C@@H](Cc1ccccc1)[C@H](O)Cc1ccccc1C(=O)NC(C)(C)C` (relative stereo) [Example 3, R-(2R *, 3S*, 6S*)-N-t-Butyl-2-[2-hydroxy-3-phenylmethyl-4,7-diaza-5,8-dioxo-6-cyanomethyl-8-(2-methyl-1,2,3,4-tetrahydroisoquinolin-3-yl]octylbenzamide] has an IC50 of 89.5 nM. `CN(C)CCNC(=O)C[C@H](NC(=O)c1ccc2ccccc2n1)C(=O)N[C@@H](Cc1ccccc1)[C@H](O)Cc1ccccc1C(=O)NC(C)(C)C` (relative stereo) [Example 15, [2R -(2R*,3S*,6S*)]-N-t-Butyl-2-[2-hydroxy-3-phenylmethyl-4-aza-5,8-dioxo-6-N(quinolin-2-ylcarbonyl)amino-8-N(2-(N, N-dimethylamino)ethyl)amino]octyl benzamide] showed an IC50 of 2.79 nM. For `CC(C)(C)NC(=O)c1ccccc1C[C@@H](O)[C@H](Cc1ccccc1)NC(=O)[C@H](CC#N)NC(=O)c1ccc2ccccc2n1` [Example 2, [2R-(2R *, 3S*, 6S*)]-N-t-Butyl-2-[2-hydroxy-3-phenylmethyl-4,7-diaza-5,8-dioxo-6-cyanomethyl-8-quinolin-2-yl]octyl benzamide], the IC50 was 1.86 nM. For `CC(C)(C)NC(=O)c1ccccc1C[C@@H](O)[C@H](Cc1ccccc1)NC(=O)[C@H](CC(=O)OCc1ccccc1)NC(=O)OCc1ccccc1` [Example 6, [2R-(2R*, 3S*, 6S*)]-N-t-Butyl-2-[2-hydroxy-3-phenylmethyl-4-aza-5-oxo-6-N(benzyloxycarbonyl)amino-7-benzyloxycarbonyl]heptyl benzamide], the IC50 was 10.6 nM. Compound `CC(C)(C)NC(=O)c1ccccc1C[C@@H](O)[C@H](Cc1ccccc1)NC(=O)[C@H](CS(N)(=O)=O)NC(=O)c1ccc2ccccc2n1` [Example 14, [2R-(2R*,3S*,6R*)]-N-t-Butyl-2-[2-hydroxy-3-phenylmethyl-4-aza-5-oxo-6-N(quinolin-2-ylcarbonyl)amino-7-aminosulfonyl]heptyl benzamide] has an IC50 of 4.18 nM. `CC(C)(C)NC(=O)c1ccccc1C[C@@H](O)[C@H](Cc1ccccc1)NC(=O)[C@H](CC(=O)NN)NC(=O)c1ccc2ccccc2n1` [Example 13, [2R-(2R*, 3S*, 6S*)]-N-t-Butyl-2-[2-hydroxy-3-phenylmethyl-4-aza-5,8-dioxo-6-N(quinolin-2-ylcarbonyl)amino-8-hydrazino]octyl benzamide] gave an IC50 of 1.12 nM. For `CC(C)(C)NC(=O)c1ccccc1C[C@@H](O)[C@H](Cc1ccccc1)NC(=O)[C@H](CC#N)NC(=O)NCc1cccc2ccccc12` (relative stereo) [Example 1, [2R-(2R*, 3S*, 6S*)]-N-t-Butyl-2-[2-hydroxy-3-phenylmethyl-4,7,9-triaza-5,8-dioxo-6-cyanomethyl-10-naphth-1-yl]decyl benzamide], the IC50 was 0.645 nM. In the case of `CC(C)(C)NC(=O)c1ccccc1C[C@@H](O)[C@H](Cc1ccccc1)NC(=O)[C@H](CC(=O)OCc1ccccn1)NC(=O)c1ccc2ccccc2n1` [Example 10, [2R-(2R*,3S*,6S*)]-N-t-Butyl-2-[2-hydroxy-3-phenylmethyl-4-aza-5-oxo-6-N(quinolin-2-ylcarbonyl)amino-7-(pyrid-2-ylmethoxycarbonyl)]heptyl benzamide], the IC50 is reported as 1.85 nM. For `CC(C)(C)NC(=O)c1ccccc1C[C@@H](O)[C@H](Cc1ccccc1)NC(=O)[C@@H](CC(=O)OCc1ccccc1)NC(=O)c1ccc2ccccc2n1` [Example 8, [2R-(2R*,3S*,6R*)]-N-t-Butyl-2-[2-hydroxy-3-phenylmethyl-4-aza-5-oxo-6-N(quinolin-2-ylcarbonyl)amino-7-benzyloxycarbonyl]heptyl benzamide], the IC50 was over 1430 nM.
